In US10517889B2, “Modulators of SMAD7 expression” (Ionis Pharmaceuticals, Inc., priority 2017, dated 2019):
Strand notation (5' to 3'): a small letter for the sugar, then the base; units joined by * are phosphorothioate-linked, units joined directly phosphodiester-linked; [ ] holds rarer units or linkages, { } end groups; capitals alone tell only the bases. e = 2'-O-(2-methoxyethyl) (MOE); [5mC] = 5-methylcytosine; d = 2'-deoxy (DNA)

Test system: human SMAD7 mRNA
Assay: Antisense inhibition of human SMAD7 mRNA expression in Hep3B cells by 5-10-5 MOE gapmers, single concentration, electroporation, RT-PCR (Example 1, Study 1 and 2)
Type: cell-based
Details: Study 2, electroporation with 15,000 nM antisense oligonucleotide, 5-10-5 MOE gapmers targeting SEQ ID NO: 1 and 2
Outline: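 Readout is percent SMAD7 mRNA inhibition versus untreated cells, measured by qRT-PCR (RTS5062) and corrected for total RNA by RIBOGREEN. Oligonucleotide, 5,000 nM or 15,000 nM, was delivered by electroporation into Hep3B cells at 20,000 per well. RNA was collected about 24 h later.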

In order of falling “% Inhibition” value:
1. 771899 (antisense e[5mC]*e[5mC]*eT*eG*eA*dT*dT*dG*dT*d[5mC]*dT*d[5mC]*d[5mC]*dA*d[5mC]*eA*eT*e[5mC]*e[5mC]*e[5mC]) [compound 771899]  47%
2. 771415 (eT*eG*e[5mC]*eG*e[5mC]*dT*d[5mC]*dG*dG*d[5mC]*dT*dG*dT*d[5mC]*d[5mC]*eG*eT*e[5mC]*eG*e[5mC]; antisense) [compound 771415]  36%
3. 771750 (antisense eG*eG*eA*e[5mC]*eA*dA*d[5mC]*dT*dT*dT*dT*d[5mC]*dA*dA*dG*eA*eA*e[5mC]*eT*e[5mC]) [compound 771750]  29%
4. 771448 (eG*eA*eG*eT*e[5mC]*dG*dG*d[5mC]*dT*dA*dA*dG*dG*dT*dG*eA*eT*eG*eG*eG; antisense) [compound 771448]  29%
5. 771716 (antisense eT*e[5mC]*eG*eA*eA*dT*d[5mC]*dA*d[5mC]*d[5mC]*d[5mC]*dT*dT*dT*d[5mC]*e[5mC]*eA*eT*eT*eA) [compound 771716]  24%
6. 771903 (antisense eT*eG*e[5mC]*e[5mC]*eA*dA*d[5mC]*d[5mC]*d[5mC]*d[5mC]*dA*dG*dA*dG*dG*eT*eG*eA*eG*e[5mC]) [compound 771903]  20%
7. 771804 (antisense eG*eA*e[5mC]*eA*eG*dA*dT*dG*d[5mC]*d[5mC]*dA*dG*d[5mC]*dA*dA*eG*eG*eA*eT*e[5mC]) [compound 771804]  17%
8. 771894 (antisense e[5mC]*eA*eA*eA*eA*dG*dG*dG*dA*dA*dA*dG*dG*dA*dG*eG*eT*eT*eT*eG) [compound 771894]  17%
9. 771796 (antisense eG*eT*eT*eT*eG*d[5mC]*dG*d[5mC]*dA*d[5mC]*dG*dG*dG*dA*dT*eT*eG*eT*e[5mC]*eT) [compound 771796]  16%
10. 771394 (antisense e[5mC]*eG*e[5mC]*eT*e[5mC]*d[5mC]*dG*dG*d[5mC]*dT*dG*d[5mC]*d[5mC]*d[5mC]*d[5mC]*eA*e[5mC]*e[5mC]*e[5mC]*e[5mC]) [compound 771394]  10%
11. 771367 (antisense e[5mC]*eT*eT*eG*eA*dT*dG*d[5mC]*dT*dG*dA*dT*dT*dA*dT*eT*eA*eA*eT*eG) [compound 771367]  0%
12. 771743 (antisense eG*e[5mC]*e[5mC]*eA*eT*dA*d[5mC]*d[5mC]*dT*d[5mC]*d[5mC]*dA*dT*d[5mC]*dT*e[5mC]*eT*e[5mC]*eA*e[5mC]) [compound 771743]  0%

In order of rising “% inhibition of SMAD7 mRNA expression” value:
1. 771644 (antisense eG*eA*eA*eG*eA*dA*dA*dT*dG*dA*dA*dA*dG*dA*dA*eG*eA*eG*eT*eT) [compound 771644]  0%
2. 771596 (antisense eG*eA*e[5mC]*eA*eA*dG*dG*dA*dT*dG*dA*dA*dA*dA*dT*eA*eA*eT*eT*eG) [compound 771596]  0%
3. 771647 (antisense eG*eA*eG*eT*eG*dT*dA*dT*dG*dA*dG*dT*dT*dG*dT*eA*eG*eA*eA*eG) [compound 771647]  6%
4. 771620 (antisense e[5mC]*eA*e[5mC]*eA*e[5mC]*dA*dG*dG*dA*dT*dG*dG*dG*dA*dG*e[5mC]*eA*eG*eG*e[5mC]) [compound 771620]  12%
5. 771471 (antisense eG*e[5mC]*eT*e[5mC]*e[5mC]*dG*d[5mC]*dA*d[5mC]*d[5mC]*dT*dT*d[5mC]*dT*dG*e[5mC]*eA*e[5mC]*e[5mC]*eA) [compound 771471]  43%

Same assay, conditions: electroporation with 15,000 nM antisense oligonucleotide (Study 2), 5-10-5 MOE gapmers targeting SEQ ID NO: 1 and 2

In order of rising “% Inhibition of SMAD7 mRNA” value:
1. 771560 (antisense e[5mC]*eT*eG*eA*e[5mC]*dA*dA*dG*dT*dG*dA*dA*dA*dT*dG*eA*eT*eG*eA*e[5mC]) [compound 771560]  0%
2. 771784 (antisense eT*eA*eA*eA*eT*d[5mC]*dA*dA*dG*dA*dG*d[5mC]*dT*dG*dA*eA*eA*eT*eT*e[5mC]) [compound 771784]  1%
3. 771379 (antisense eG*eA*eT*e[5mC]*e[5mC]*dA*dT*d[5mC]*dT*dT*dT*dA*dA*dG*d[5mC]*eA*e[5mC]*eG*e[5mC]*eT) [compound 771379]  21%
4. 771584 (antisense eA*eG*e[5mC]*e[5mC]*eG*dT*dG*d[5mC]*dT*d[5mC]*d[5mC]*dT*dG*dG*d[5mC]*eA*eG*e[5mC]*eT*eG) [compound 771584]  26%
5. 771433 (eT*e[5mC]*e[5mC]*eT*eT*d[5mC]*dA*dG*dT*dT*dT*d[5mC]*dT*dT*dG*eA*eG*e[5mC]*eA*e[5mC]; antisense) [compound 771433]  28%
6. 771672 (antisense eT*eT*eT*eT*eT*dT*d[5mC]*dA*dG*dG*dA*dG*dT*d[5mC]*d[5mC]*eT*eT*eT*e[5mC]*eT) [compound 771672]  30%
7. 771409 (antisense e[5mC]*e[5mC]*e[5mC]*e[5mC]*eT*dG*d[5mC]*dG*d[5mC]*d[5mC]*d[5mC]*dT*d[5mC]*d[5mC]*dT*e[5mC]*e[5mC]*eT*e[5mC]*eG) [compound 771409]  33%
8. 771912 (antisense eA*eT*eA*eT*eT*d[5mC]*d[5mC]*dT*d[5mC]*dT*dG*d[5mC]*d[5mC]*dA*dA*eA*eG*eT*e[5mC]*e[5mC]) [compound 771912]  44%

In order of falling “% inhibition of SMAD7 mRNA expression” value:
1. 771650 (antisense eG*eA*eA*eG*eT*dA*dT*d[5mC]*dA*dT*dA*d[5mC]*dG*dA*dG*eT*eG*eT*eA*eT) [compound 771650]  24%
2. 771672 (antisense eT*eT*eT*eT*eT*dT*d[5mC]*dA*dG*dG*dA*dG*dT*d[5mC]*d[5mC]*eT*eT*eT*e[5mC]*eT) [compound 771672]  2%

Same assay, conditions: electroporation, 5,000 nM, approximately 24 hours, relative to untreated control cells, gapmers targeting SEQ ID NO: 1 and 2

“771899 (antisense e[5mC]*e[5mC]*eT*eG*eA*dT*dT*dG*dT*d[5mC]*dT*d[5mC]*d[5mC]*dA*d[5mC]*eA*eT*e[5mC]*e[5mC]*e[5mC]) [compound 771899]” was tested, and the “% inhibition of SMAD7 mRNA expression” value was 57%.

Same assay, conditions: electroporation, 15,000 nM antisense oligonucleotide (Study 2), 5-10-5 MOE gapmers targeting SEQ ID NO: 1 and 2

In order of falling “% inhibition of SMAD7 mRNA expression” value:
1. 771396 (antisense e[5mC]*eT*eG*e[5mC]*eG*d[5mC]*dT*d[5mC]*d[5mC]*dG*dG*d[5mC]*dT*dG*d[5mC]*e[5mC]*e[5mC]*e[5mC]*eA*e[5mC]) [compound 771396]  48%
2. 771419 (eG*eG*e[5mC]*e[5mC]*eG*d[5mC]*d[5mC]*dG*d[5mC]*d[5mC]*dA*d[5mC]*d[5mC]*dG*dG*e[5mC]*e[5mC]*e[5mC]*e[5mC]*eA; antisense) [compound 771419]  37%
3. 771866 (antisense eG*e[5mC]*eA*eT*eT*dT*dT*dT*d[5mC]*dT*dG*dA*dA*d[5mC]*dA*eG*eA*eG*eT*e[5mC]) [compound 771866]  34%
4. 771873 (antisense eA*eG*e[5mC]*eT*eG*d[5mC]*dT*dG*dT*d[5mC]*dA*d[5mC]*dA*dA*dG*eG*e[5mC]*e[5mC]*e[5mC]*eT) [compound 771873]  31%
5. 771522 (antisense eG*e[5mC]*eA*eT*eG*dA*dA*dA*dA*dG*d[5mC]*dA*dA*dG*d[5mC]*eA*e[5mC]*eT*e[5mC]*eA) [compound 771522]  29%
6. 771745 (antisense eG*eT*eG*eA*eA*dG*dA*dA*dG*d[5mC]*dA*dA*dA*dG*dT*eA*eT*eA*e[5mC]*e[5mC]) [compound 771745]  24%
7. 771912 (antisense eA*eT*eA*eT*eT*d[5mC]*d[5mC]*dT*d[5mC]*dT*dG*d[5mC]*d[5mC]*dA*dA*eA*eG*eT*e[5mC]*e[5mC]) [compound 771912]  19%
8. 771409 (antisense e[5mC]*e[5mC]*e[5mC]*e[5mC]*eT*dG*d[5mC]*dG*d[5mC]*d[5mC]*d[5mC]*dT*d[5mC]*d[5mC]*dT*e[5mC]*e[5mC]*eT*e[5mC]*eG) [compound 771409]  19%
9. 771584 (antisense eA*eG*e[5mC]*e[5mC]*eG*dT*dG*d[5mC]*dT*d[5mC]*d[5mC]*dT*dG*dG*d[5mC]*eA*eG*e[5mC]*eT*eG) [compound 771584]  7%
10. 771379 (antisense eG*eA*eT*e[5mC]*e[5mC]*dA*dT*d[5mC]*dT*dT*dT*dA*dA*dG*d[5mC]*eA*e[5mC]*eG*e[5mC]*eT) [compound 771379]  0%
11. 771560 (antisense e[5mC]*eT*eG*eA*e[5mC]*dA*dA*dG*dT*dG*dA*dA*dA*dT*dG*eA*eT*eG*eA*e[5mC]) [compound 771560]  0%
12. 771433 (eT*e[5mC]*e[5mC]*eT*eT*d[5mC]*dA*dG*dT*dT*dT*d[5mC]*dT*dT*dG*eA*eG*e[5mC]*eA*e[5mC]; antisense) [compound 771433]  0%
13. 771784 (antisense eT*eA*eA*eA*eT*d[5mC]*dA*dA*dG*dA*dG*d[5mC]*dT*dG*dA*eA*eA*eT*eT*e[5mC]) [compound 771784]  0%
14. 771881 (antisense eA*eT*eT*eT*eT*d[5mC]*d[5mC]*dA*dA*dA*dA*dG*dG*dA*d[5mC]*eA*eA*eA*eA*e[5mC]) [compound 771881]  0%
15. 771380 (antisense eA*e[5mC]*e[5mC]*eA*eA*dG*dA*dT*d[5mC]*d[5mC]*dA*dT*d[5mC]*dT*dT*eT*eA*eA*eG*e[5mC]) [compound 771380]  0%

Same assay, conditions: electroporation, 15,000 nM, approximately 24 hours, relative to untreated control cells, gapmers targeting SEQ ID NO: 1 and 2

In order of falling “% inhibition of SMAD7 mRNA expression” value:
1. 771446 (e[5mC]*eA*e[5mC]*eA*eG*d[5mC]*d[5mC]*dT*d[5mC]*dT*dT*dG*dA*d[5mC]*dT*eT*e[5mC]*e[5mC]*eG*eA; antisense) [compound 771446]  55%
2. 771478 (antisense e[5mC]*eA*e[5mC]*e[5mC]*eT*dT*dG*dT*dG*dT*dA*d[5mC]*d[5mC]*dA*dA*e[5mC]*eA*eG*e[5mC]*eG) [compound 771478]  53%
3. 771909 (antisense e[5mC]*eA*eG*eG*e[5mC]*dT*d[5mC]*d[5mC]*d[5mC]*dT*dG*dT*dG*d[5mC]*d[5mC]*eA*eA*eT*e[5mC]*eA) [compound 771909]  52%
4. 771589 (antisense eT*eG*eG*eA*e[5mC]*dA*dG*dG*d[5mC]*d[5mC]*d[5mC]*dG*dT*dG*dT*e[5mC]*e[5mC]*eT*eT*eG) [compound 771589]  51%
5. 771701 (antisense eG*eG*eT*eA*eT*dG*d[5mC]*dA*d[5mC]*dA*d[5mC]*dT*d[5mC]*dT*d[5mC]*e[5mC]*e[5mC]*eA*eG*eG) [compound 771701]  34%
6. 771462 (antisense e[5mC]*eT*eG*eG*eA*d[5mC]*dA*d[5mC]*dA*dG*dT*dA*dG*dA*dG*e[5mC]*e[5mC]*eT*e[5mC]*e[5mC]) [compound 771462]  31%
7. 771438 (e[5mC]*e[5mC]*eA*e[5mC]*eG*dG*d[5mC]*d[5mC]*dT*dG*dG*dA*dG*d[5mC]*dA*eG*e[5mC]*eA*eG*e[5mC]; antisense) [compound 771438]  26%
8. 771384 (antisense eT*eG*e[5mC]*eT*eG*dT*dG*dG*dA*dT*dT*dT*dG*dA*dA*eA*eA*eG*eG*eG) [compound 771384]  18%
